# Measured values taken from paper PMC5368910 (BMC Pharmacology & Toxicology, 2017).
# Read-outs that look alike come from different tables or passages of the source.
# Tests used:
# [1] = after the first single oral dose, both SAD and MAD groups
# Method: (§1) Randomization was assigned by blinded study personnel and stratified by gender to achieve an equal number of male and female subjects in each cohort. Subjects aged 18–49 years and 50–75 years were equally distributed in each dosing cohort.
# (§2) Any subject receiving at least one full dose of the study drug was included in the PK analysis population. PK analysis during the SAD study was conducted on serial plasma samples collected predose and at 30 min, 1, 2, 4, 6, 8, 12, 24, 48, and 72 h after dosing, and analyzed using a validated liquid chromatography-tandem mass spectrometry (LC/MS/MS) method, with a lower limit of quantification (LLOQ) of 1 ng/mL. […] The samples were analyzed using an API 5000 triple quadrupole mass spectrometer (Applied Biosystems/ScieEx, Concord, ON, Canada) using electrospray ionization in positive ion mode. Analyst^TM software (version 1.4.2., Applied Biosystems, Foster City, CA, USA) was used for data acquisition. In total, 8 calibration solutions with a range of 1.00 ng/mL to 1000 ng/mL were used as internal standards in addition to a blank. Inter-assay bias was determined to be –2.6 to 2.5% with inter-assay precision of 3.9 to 9.4%.
# (§3) Plasma PK parameters were calculated using standard noncompartmental methods in a validated version of WinNonlin (version 5.2, Pharsight, Mountain View, CA, USA). All concentrations that were below the LLOQ prior to the first detectable concentration were assigned a value of 0. All concentrations that were below the LLOQ after the first quantifiable concentration were designated as missing and replaced with a period. Actual sample collection times were used in the analysis of the concentration versus time profiles for individual subjects. Integration of plasma concentrations versus time was conducted using the linear-up, log-down function in WinNonlin. The following parameters were determined: maximum plasma concentration (Cmax), time of Cmax (Tmax), area under the concentration-time curve (AUC) from 0 to last measurable plasma concentration (AUC0-t), AUC from 0 to infinity (AUC0-∞), percent of dose excreted in the urine, and terminal exponential half-life (t½).
# [2] = MAD, 500 mg BID oral, plasma, LC/MS/MS, LLOQ 1 ng/mL, median (range)
# Method: (§4) Subjects were dosed BID, once in the morning and once in the evening, for 14 consecutive days, with at least 8 ounces of water and approximately 1 h after breakfast and 1 h after dinner.
# (§5) During the MAD study, serial plasma samples for PK analysis were collected predose and at 30 min, 3, 6, and 9 h after the morning dose on days 1 and 14, and before the morning dose on days 4, 7, 10, and 12 (trough levels). […] Samples were analyzed using the same bioanalytical LC/MS/MS method as in the SAD study (LLOQ of 1 ng/mL).
# as §3
# [3] = SAD, single oral dose, urine over a 7-day period, LC/MS/MS
# Method: Any subject receiving at least one full dose of the study drug was included in the PK analysis population. PK analysis during the SAD study was conducted on serial plasma samples collected predose and at 30 min, 1, 2, 4, 6, 8, 12, 24, 48, and 72 h after dosing, and analyzed using a validated liquid chromatography-tandem mass spectrometry (LC/MS/MS) method, with a lower limit of quantification (LLOQ) of 1 ng/mL. Urine and stool samples were also collected during this period and analyzed using LC/MS/MS. Urine and feces were collected for 7 days after dose administration. The samples were analyzed using an API 5000 triple quadrupole mass spectrometer (Applied Biosystems/ScieEx, Concord, ON, Canada) using electrospray ionization in positive ion mode. […]
# Plasma PK parameters were calculated using standard noncompartmental methods in a validated version of WinNonlin (version 5.2, Pharsight, Mountain View, CA, USA). […] All concentrations that were below the LLOQ after the first quantifiable concentration were designated as missing and replaced with a period. […] The following parameters were determined: maximum plasma concentration (Cmax), time of Cmax (Tmax), area under the concentration-time curve (AUC) from 0 to last measurable plasma concentration (AUC0-t), AUC from 0 to infinity (AUC0-∞), percent of dose excreted in the urine, and terminal exponential half-life (t½).
# [4] = not given; remark: listed apart in the source
# [5] = tested on: C. difficile; parameters: method as in PMID 22183166, PMID 22391542; conditions: cited from earlier work
# [6] = tested on: initial and relapsing hamster CDAD; parameters: method as in PMID 22802252; conditions: given orally; potency similar to vancomycin; cited from earlier work
# [7] = clinical; conditions: both, human, plasma, po
# Method: as §1, §2, §3
# [8] = clinical; conditions: both, human, plasma, po, MAD, median (range); for AUC(0-t): AUC0–t; for Tmax: LLOQ 1 ng/mL
# Method: as §4, §5, §3
# [9] = rats; ref Yin N et al., ICAAC 2010, unpublished data; cited from earlier work
# [10] = dogs; ref Yin N et al., ICAAC 2010, unpublished data; cited from earlier work
# [11] = SAD, of the 32 subjects who received surotomycin
# [12] = MAD, subjects who received surotomycin (n = 24)
# [13] = 250 mg, 250 mg BID oral, day 1, LC/MS/MS, cohort n = 8
# [14] = 1000 mg, 1000 mg BID oral, day 1, LC/MS/MS, cohort n = 8
# 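Throughout, for Back pain (TEAE): human subjects dosed twice daily for 14 days, safety tracked through day 21 follow-up via reported adverse events, examinations, vital signs, ECG and laboratory tests.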
# 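Throughout, for Diarrhea (TEAE): single ascending dose cohorts, safety followed through day 8 via observed or reported adverse events, physical exam, vital signs, ECG and laboratory tests, all dosed subjects analysed.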
# 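Throughout, for General disorders and administration- site conditions (TEAE): human subjects dosed twice daily for 14 days, safety tracked through day 21 follow-up via reported adverse events, examinations, vital signs, ECG and laboratory tests.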
# 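Throughout, for Headache (TEAE): human subjects dosed twice daily for 14 days, safety tracked through day 21 follow-up via reported adverse events, examinations, vital signs, ECG and laboratory tests.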
# 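Throughout, for Investigations (TEAE): single ascending dose cohorts, safety followed through day 8 via observed or reported adverse events, physical exam, vital signs, ECG and laboratory tests, all dosed subjects analysed.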
# 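Throughout, for Musculoskeletal and connective tissue disorders (TEAE): human subjects dosed twice daily for 14 days, safety tracked through day 21 follow-up via reported adverse events, examinations, vital signs, ECG and laboratory tests.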
# 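Throughout, for Transaminase increased (TEAE): single ascending dose cohorts, safety followed through day 8 via observed or reported adverse events, physical exam, vital signs, ECG and laboratory tests, all dosed subjects analysed.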
# 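Throughout, for serious AEs: single ascending dose cohorts, safety followed through day 8 via observed or reported adverse events, physical exam, vital signs, ECG and laboratory tests, all dosed subjects analysed.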
smiles,measurement,setting,value
CCCCCc1ccc(/C(C)=C/C(=O)N[C@@H](Cc2c[nH]c3ccccc23)C(=O)N[C@H](CC(N)=O)C(=O)N[C@@H](CC(=O)O)C(=O)N[C@@H]2C(=O)NCC(=O)N[C@@H](CCCN)C(=O)N[C@@H](CC(=O)O)C(=O)N[C@H](C)C(=O)N[C@@H](CC(=O)O)C(=O)NCC(=O)N[C@H](CO)C(=O)N[C@@H]([C@H](C)CC(=O)O)C(=O)N[C@@H](CC(=O)c3ccccc3N)C(=O)O[C@@H]2C)cc1 [surotomycin],time of peak median plasma concentration after the first dose,[1],6 to 12 h
same,Tmax,"[2]; day 1, cohort n = 8",6.0 (6.0–9.0) h
same,Tmax,[2]; day 14 morning dose,6.0 (0.0–9.0) h
same,median cumulative amount of the administered dose recovered in the urine,[3],< 0.01%
same,At least one TEAE,SAD 500 mg (n = 8),3 (37.5) n (%)
same,Diarrhea (TEAE),SAD 500 mg (n = 8),1 (12.5) n (%)
same,Gastrointestinal disorders (TEAE),SAD 500 mg (n = 8),2 (25.0) n (%)
same,Infections and infestations (TEAE),SAD 500 mg (n = 8),0 n (%)
same,Investigations (TEAE),SAD 500 mg (n = 8),0 n (%)
same,Transaminase increased (TEAE),SAD 500 mg (n = 8),0 n (%)
same,At least one TEAE,SAD 1000 mg (n = 8),0 n (%)
same,Diarrhea (TEAE),SAD 1000 mg (n = 8),0 n (%)
same,Gastrointestinal disorders (TEAE),SAD 1000 mg (n = 8),0 n (%)
same,Infections and infestations (TEAE),SAD 1000 mg (n = 8),0 n (%)
same,Investigations (TEAE),SAD 1000 mg (n = 8),0 n (%)
same,Transaminase increased (TEAE),SAD 1000 mg (n = 8),0 n (%)
same,At least one TEAE,SAD 2000 mg (n = 8),5 (62.5) n (%)
same,Diarrhea (TEAE),SAD 2000 mg (n = 8),3 (37.5) n (%)
same,Gastrointestinal disorders (TEAE),SAD 2000 mg (n = 8),3 (37.5) n (%)
same,Infections and infestations (TEAE),SAD 2000 mg (n = 8),0 n (%)
same,Investigations (TEAE),SAD 2000 mg (n = 8),1 (12.5) n (%)
same,Transaminase increased (TEAE),SAD 2000 mg (n = 8),1 (12.5) n (%)
same,At least one TEAE,SAD 4000 mg (n = 8),3 (37.5) n (%)
same,Diarrhea (TEAE),SAD 4000 mg (n = 8),1 (12.5) n (%)
same,Gastrointestinal disorders (TEAE),SAD 4000 mg (n = 8),1 (12.5) n (%)
same,Infections and infestations (TEAE),SAD 4000 mg (n = 8),2 (25.0) n (%)
same,Investigations (TEAE),SAD 4000 mg (n = 8),1 (12.5) n (%)
same,Transaminase increased (TEAE),SAD 4000 mg (n = 8),1 (12.5) n (%)
same,serious AEs,"SAD group, none discontinued due to AEs",No serious AEs
same,treatment-related diarrhea,"SAD, all surotomycin subjects (n = 32)",5 (15.6%) n (%)
same,increased transaminases,[11],2 (6.3%) n (%)
same,subjects with AEs assessed as treatment-related,[11],9 (28.1%) n (%)
same,tolerability,"SAD, single oral doses 500, 1000, 2000 or 4000 mg",well tolerated
same,severity of reported AEs,"SAD, single oral doses 500-4000 mg",mild to moderate
same,At least one TEAE,[4]; MAD 250 mg BID (n = 8),4 (50.0) n (%)
same,Back pain (TEAE),[4]; MAD 250 mg BID (n = 8),1 (12.5) n (%)
same,Gastrointestinal disorders (TEAE),[4]; MAD 250 mg BID (n = 8),2 (25.0) n (%)
same,General disorders and administration- site conditions (TEAE),[4]; MAD 250 mg BID (n = 8),0 n (%)
same,Headache (TEAE),[4]; MAD 250 mg BID (n = 8),1 (12.5) n (%)
same,Infections and infestations (TEAE),[4]; MAD 250 mg BID (n = 8),0 n (%)
same,Musculoskeletal and connective tissue disorders (TEAE),[4]; MAD 250 mg BID (n = 8),2 (25.0) n (%)
same,Nervous system disorders (TEAE),[4]; MAD 250 mg BID (n = 8),2 (25.0) n (%)
same,Oropharyngeal pain (TEAE),[4]; MAD 250 mg BID (n = 8),0 n (%)
same,Pruritus (TEAE),[4]; MAD 250 mg BID (n = 8),0 n (%)
same,"Respiratory, thoracic, and mediastinal disorders (TEAE)",[4]; MAD 250 mg BID (n = 8),0 n (%)
same,Skin and subcutaneous tissue disorders (TEAE),[4]; MAD 250 mg BID (n = 8),0 n (%)
same,At least one TEAE,[4]; MAD 500 mg BID (n = 8),6 (75.0) n (%)
same,Back pain (TEAE),[4]; MAD 500 mg BID (n = 8),1 (12.5) n (%)
same,Gastrointestinal disorders (TEAE),[4]; MAD 500 mg BID (n = 8),0 n (%)
same,General disorders and administration- site conditions (TEAE),[4]; MAD 500 mg BID (n = 8),0 n (%)
same,Headache (TEAE),[4]; MAD 500 mg BID (n = 8),1 (12.5) n (%)
same,Infections and infestations (TEAE),[4]; MAD 500 mg BID (n = 8),1 (12.5) n (%)
same,Musculoskeletal and connective tissue disorders (TEAE),[4]; MAD 500 mg BID (n = 8),2 (25.0) n (%)
same,Nervous system disorders (TEAE),[4]; MAD 500 mg BID (n = 8),1 (12.5) n (%)
same,Oropharyngeal pain (TEAE),[4]; MAD 500 mg BID (n = 8),1 (12.5) n (%)
same,Pruritus (TEAE),[4]; MAD 500 mg BID (n = 8),1 (12.5) n (%)
same,"Respiratory, thoracic, and mediastinal disorders (TEAE)",[4]; MAD 500 mg BID (n = 8),2 (25.0) n (%)
same,Skin and subcutaneous tissue disorders (TEAE),[4]; MAD 500 mg BID (n = 8),1 (12.5) n (%)
same,At least one TEAE,[4]; MAD 1000 mg BID (n = 8),5 (62.5) n (%)
same,Back pain (TEAE),[4]; MAD 1000 mg BID (n = 8),0 n (%)
same,Gastrointestinal disorders (TEAE),[4]; MAD 1000 mg BID (n = 8),2 (25.0) n (%)
same,General disorders and administration- site conditions (TEAE),[4]; MAD 1000 mg BID (n = 8),2 (25.0) n (%)
same,Headache (TEAE),[4]; MAD 1000 mg BID (n = 8),0 n (%)
same,Infections and infestations (TEAE),[4]; MAD 1000 mg BID (n = 8),1 (12.5) n (%)
same,Musculoskeletal and connective tissue disorders (TEAE),[4]; MAD 1000 mg BID (n = 8),0 n (%)
same,Nervous system disorders (TEAE),[4]; MAD 1000 mg BID (n = 8),2 (25.0) n (%)
same,Oropharyngeal pain (TEAE),[4]; MAD 1000 mg BID (n = 8),1 (12.5) n (%)
same,Pruritus (TEAE),[4]; MAD 1000 mg BID (n = 8),1 (12.5) n (%)
same,"Respiratory, thoracic, and mediastinal disorders (TEAE)",[4]; MAD 1000 mg BID (n = 8),2 (25.0) n (%)
same,Skin and subcutaneous tissue disorders (TEAE),[4]; MAD 1000 mg BID (n = 8),1 (12.5) n (%)
same,discontinuation due to AEs,"[4]; MAD, 500 mg BID, transient moderate anxiety and mild dyspnea 2 h after the 5th dose",One subject
same,tolerability,"[4]; MAD, 250, 500, 1000 mg BID",well tolerated
same,severity of reported AEs,"[4]; MAD, 250, 500, 1000 mg BID for 14 days",mild to moderate
same,relation of reported AEs to study drug,"[4]; MAD, all reported AEs",unrelated to the study drug
same,headache,"[4]; MAD, of the 24 subjects who received surotomycin",2 (8.3%) n (%)
same,back pain,[4]; [12],2 (8.3%) n (%)
same,constipation,[4]; [12],2 (8.3%) n (%)
same,oropharyngeal pain,[4]; [12],2 (8.3%) n (%)
same,pruritus,[4]; [12],2 (8.3%) n (%)
same,in vitro potency relative to vancomycin,"[5]; against C. difficile, by MIC90",fourfold greater
same,minimum inhibitory concentration at which 90% of the isolates were inhibited [MIC90],"[5]; in vitro, C. difficile isolates",0.5 µg/mL
same,efficacy against initial and relapsing hamster CDAD,[6],highly effective
same,AUC(0-inf),[7]; 500 mg,317 ng·h/mL
same,AUC(0-t),[7]; 500 mg,260 ng·h/mL
same,Cmax,[7]; 500 mg,10.5 ng/mL
same,Tmax,[7]; 500 mg,6 h
same,half-life,[7]; 500 mg,1100 min
same,AUC(0-inf),[7]; 1000 mg,702 ng·h/mL
same,AUC(0-t),[7]; 1000 mg,664 ng·h/mL
same,Cmax,[7]; 1000 mg,21.5 ng/mL
same,Tmax,[7]; 1000 mg,10 h
same,half-life,[7]; 1000 mg,1270 min
same,AUC(0-inf),[7]; 2000 mg,2080 ng·h/mL
same,AUC(0-t),[7]; 2000 mg,1860 ng·h/mL
same,Cmax,[7]; 2000 mg,66.6 ng/mL
same,Tmax,[7]; 2000 mg,8 h
same,half-life,[7]; 2000 mg,978 min
same,AUC(0-inf),[7]; 4000 mg,2570 ng·h/mL
same,AUC(0-t),[7]; 4000 mg,2480 ng·h/mL
same,Cmax,[7]; 4000 mg,86.7 ng/mL
same,Tmax,[7]; 4000 mg,12 h
same,half-life,[7]; 4000 mg,888 min
same,AUC(0-t),"[8]; 250 mg, 250 mg BID oral, day 1, 0 to last measurable concentration, cohort n = 8",41.2 ng·h/mL
same,AUC(0-t),"[8]; 250 mg, 250 mg BID oral, day 14, 0 to last measurable concentration",274 ng·h/mL
same,Cmax,[8]; [13],6.8 ng/mL
same,Cmax,"[8]; 250 mg, 250 mg BID oral, day 14, LC/MS/MS",25.5 ng/mL
same,Tmax,[8]; [13],9 h
same,Tmax,"[8]; 250 mg, 250 mg BID oral, day 14 morning dose, LC/MS/MS",4.5 h
same,AUC(0-t),"[8]; 500 mg, 500 mg BID oral, day 1, 0 to last measurable concentration, cohort n = 8",49.4 ng·h/mL
same,AUC(0-t),"[8]; 500 mg, 500 mg BID oral, day 14, 0 to last measurable concentration",313 ng·h/mL
same,Cmax,"[8]; 500 mg, 500 mg BID oral, day 1, LC/MS/MS, cohort n = 8",11 ng/mL
same,Cmax,"[8]; 500 mg, 500 mg BID oral, day 14, LC/MS/MS",37.6 ng/mL
same,AUC(0-t),"[8]; 1000 mg, 1000 mg BID oral, day 1, 0 to last measurable concentration, cohort n = 8",118 ng·h/mL
same,AUC(0-t),"[8]; 1000 mg, 1000 mg BID oral, day 14, 0 to last measurable concentration",771 ng·h/mL
same,Cmax,[8]; [14],21 ng/mL
same,Cmax,"[8]; 1000 mg, 1000 mg BID oral, day 14, LC/MS/MS",93.5 ng/mL
same,Tmax,[8]; [14],7.5 h
same,Tmax,"[8]; 1000 mg, 1000 mg BID oral, day 14 morning dose, LC/MS/MS",1.8 h
same,bioavailability after oral administration,[9],very low
same,intestinal absorption,[9],< 1%
same,intestinal absorption,[10],< 1%
